The text below walks through data of ChEMBL document CHEMBL4229384, “Success stories of natural product-based hybrid molecules for multi-factorial diseases” (Eur J Med Chem, 2018).

In brackets after ≈: the same amount, converted by molar mass.

One assay deals with MOLT-4. Kind of assay: Antiproliferative activity against human MOLT4 cells. It is filed as functional, cell-based.
The subject of a further assay is UCLA P-3. Kind of assay: Antiproliferative activity against human UCLA-P3 cells. It is filed as functional, cell-based.
Assay [1] concerns the target Acetylcholinesterase (Electrophorus electricus, UniProt O42275). Description: Inhibition of electric eel AChE using acetylthiocholine iodide as substrate measured for 120 secs by spectrophotometric analysis.
For assay [2], the target named is Nitric oxide synthase, inducible (Rattus norvegicus, UniProt Q06518). Kind of assay: Inhibition of rat iNOS after 12 to 24 hrs in presence of [gamma32P]ATP by electrophoretic mobility shift assays. (In EMSA bound probe runs differently from free probe, usually more slowly.)
Chain of Nitric oxide synthase, inducible (Q06518 whole entry): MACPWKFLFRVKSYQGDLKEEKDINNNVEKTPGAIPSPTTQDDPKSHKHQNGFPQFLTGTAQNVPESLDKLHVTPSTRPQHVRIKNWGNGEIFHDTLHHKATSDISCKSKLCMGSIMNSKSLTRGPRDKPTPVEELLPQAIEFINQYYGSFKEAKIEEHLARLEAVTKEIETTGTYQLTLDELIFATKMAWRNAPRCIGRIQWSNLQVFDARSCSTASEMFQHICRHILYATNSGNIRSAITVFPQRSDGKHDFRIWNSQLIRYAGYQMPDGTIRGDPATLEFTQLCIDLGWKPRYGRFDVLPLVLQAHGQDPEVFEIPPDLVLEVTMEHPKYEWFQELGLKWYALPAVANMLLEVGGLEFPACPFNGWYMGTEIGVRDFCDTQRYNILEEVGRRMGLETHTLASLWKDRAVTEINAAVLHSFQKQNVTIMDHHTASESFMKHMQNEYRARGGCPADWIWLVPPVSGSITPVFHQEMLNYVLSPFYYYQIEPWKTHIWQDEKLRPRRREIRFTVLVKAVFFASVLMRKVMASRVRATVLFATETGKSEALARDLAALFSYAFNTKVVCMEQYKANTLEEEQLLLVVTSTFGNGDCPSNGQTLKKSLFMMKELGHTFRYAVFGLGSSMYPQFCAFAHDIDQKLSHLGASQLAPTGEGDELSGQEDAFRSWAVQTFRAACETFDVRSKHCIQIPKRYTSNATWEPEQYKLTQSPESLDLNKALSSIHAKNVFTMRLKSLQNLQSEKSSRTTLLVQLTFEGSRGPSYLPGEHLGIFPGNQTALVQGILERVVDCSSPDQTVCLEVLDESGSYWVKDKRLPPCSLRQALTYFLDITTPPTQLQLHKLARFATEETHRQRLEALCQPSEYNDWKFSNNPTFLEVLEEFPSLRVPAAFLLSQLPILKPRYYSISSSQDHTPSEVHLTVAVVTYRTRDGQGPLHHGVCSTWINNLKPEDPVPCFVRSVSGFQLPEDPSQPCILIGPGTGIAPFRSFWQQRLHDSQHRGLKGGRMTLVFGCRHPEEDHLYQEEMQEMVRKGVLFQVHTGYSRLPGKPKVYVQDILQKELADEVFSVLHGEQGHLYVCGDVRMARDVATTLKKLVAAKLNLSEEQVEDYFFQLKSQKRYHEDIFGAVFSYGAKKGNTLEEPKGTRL
Assay [3] concerns the target T1, Acetylcholinesterase (Bos taurus, UniProt P23795).
T1 sequence (P23795 whole entry): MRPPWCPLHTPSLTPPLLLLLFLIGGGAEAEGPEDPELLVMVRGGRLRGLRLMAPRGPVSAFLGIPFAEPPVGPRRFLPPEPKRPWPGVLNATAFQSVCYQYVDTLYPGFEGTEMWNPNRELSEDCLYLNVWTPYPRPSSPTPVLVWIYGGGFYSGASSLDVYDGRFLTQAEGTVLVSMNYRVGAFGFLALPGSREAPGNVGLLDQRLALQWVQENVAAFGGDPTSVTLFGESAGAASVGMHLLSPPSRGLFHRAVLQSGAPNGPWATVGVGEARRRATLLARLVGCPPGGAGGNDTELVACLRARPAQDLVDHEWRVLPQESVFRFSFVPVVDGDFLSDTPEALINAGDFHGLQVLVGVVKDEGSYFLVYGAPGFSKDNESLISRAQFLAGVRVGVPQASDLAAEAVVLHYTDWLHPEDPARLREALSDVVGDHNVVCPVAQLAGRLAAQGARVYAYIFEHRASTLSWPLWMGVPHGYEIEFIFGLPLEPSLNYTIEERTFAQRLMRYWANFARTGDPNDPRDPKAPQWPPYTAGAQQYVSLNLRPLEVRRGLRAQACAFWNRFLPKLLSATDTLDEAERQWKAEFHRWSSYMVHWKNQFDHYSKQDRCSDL
Kind of assay: Inhibition of bovine erythrocyte AchE using acetylthiocholine iodide as substrate after 15 mins by spectrophotometric analysis.

A further assay has as its system SK-BR-3. Kind of assay: Growth inhibition of human SKBR3 cells. It is filed as functional, cell-based.
The target in assay [4] is T2, Receptor tyrosine-protein kinase erbB-2 (Homo sapiens, UniProt P04626). Kind of assay: Inhibition of HER2 in human MCF-7 cells after 24 hrs by immunoblotting analysis. Format: cell-based. (Immunoblotting shows a protein as a band on a membrane.)
T2 sequence (P04626 whole entry): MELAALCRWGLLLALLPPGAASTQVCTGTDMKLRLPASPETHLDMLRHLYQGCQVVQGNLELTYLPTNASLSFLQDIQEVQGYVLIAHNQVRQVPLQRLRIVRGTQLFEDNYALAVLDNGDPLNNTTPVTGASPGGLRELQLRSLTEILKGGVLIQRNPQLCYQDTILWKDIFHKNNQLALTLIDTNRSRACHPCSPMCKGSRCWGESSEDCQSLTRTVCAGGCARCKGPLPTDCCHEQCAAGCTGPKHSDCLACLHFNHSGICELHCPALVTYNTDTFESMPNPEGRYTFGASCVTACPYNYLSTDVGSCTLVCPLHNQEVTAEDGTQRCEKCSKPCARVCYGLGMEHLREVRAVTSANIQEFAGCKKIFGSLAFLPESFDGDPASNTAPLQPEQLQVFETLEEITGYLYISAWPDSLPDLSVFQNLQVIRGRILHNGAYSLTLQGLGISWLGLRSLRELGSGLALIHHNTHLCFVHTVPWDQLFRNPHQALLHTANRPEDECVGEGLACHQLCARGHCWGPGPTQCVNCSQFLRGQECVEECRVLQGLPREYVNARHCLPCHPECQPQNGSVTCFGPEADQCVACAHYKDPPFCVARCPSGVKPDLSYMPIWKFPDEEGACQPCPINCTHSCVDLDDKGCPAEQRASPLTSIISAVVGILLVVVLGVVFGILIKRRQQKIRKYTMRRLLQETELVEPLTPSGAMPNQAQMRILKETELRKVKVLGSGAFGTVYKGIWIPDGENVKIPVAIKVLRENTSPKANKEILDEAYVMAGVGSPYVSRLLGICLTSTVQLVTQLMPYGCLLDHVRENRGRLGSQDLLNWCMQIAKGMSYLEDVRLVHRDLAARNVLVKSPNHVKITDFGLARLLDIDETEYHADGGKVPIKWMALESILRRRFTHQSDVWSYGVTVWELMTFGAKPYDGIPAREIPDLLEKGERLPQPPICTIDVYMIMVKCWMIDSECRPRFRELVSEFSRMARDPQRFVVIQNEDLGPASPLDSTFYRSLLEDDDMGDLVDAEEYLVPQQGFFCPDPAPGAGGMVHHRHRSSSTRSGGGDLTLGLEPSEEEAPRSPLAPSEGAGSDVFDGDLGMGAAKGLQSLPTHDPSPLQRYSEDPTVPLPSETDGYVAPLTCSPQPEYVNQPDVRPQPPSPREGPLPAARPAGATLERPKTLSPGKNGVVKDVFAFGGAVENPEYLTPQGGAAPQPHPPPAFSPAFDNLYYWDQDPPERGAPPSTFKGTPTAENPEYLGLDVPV
For assay [5], the system named is Mycobacterium tuberculosis. Kind of assay: Antitubercular activity against Mycobacterium tuberculosis H37Rv. Format: functional.
In another assay the test system is A549. Kind of assay: Cytotoxicity against human A549 cells assessed as reduction in cell viability. To be noted: read-out: ED50 (the source's name). It is filed as functional.
The nature of assay [6]: Antiproliferative activity against human MDA435/LCC6 cells. It is filed as functional, cell-based. To be noted: MDA-435/LCC6.
Assay [7] concerns the target T3, Phospholipase A2, membrane associated (Homo sapiens) (UniProt P14555).
T3 sequence (whole entry): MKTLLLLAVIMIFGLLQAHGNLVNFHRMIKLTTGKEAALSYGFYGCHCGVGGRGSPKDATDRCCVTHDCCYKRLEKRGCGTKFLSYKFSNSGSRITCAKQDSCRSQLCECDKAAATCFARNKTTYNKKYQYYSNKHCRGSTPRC
Kind of assay: Inhibition of human sPLA2-2A assessed as reduction in nitric oxide level at 10 uM relative to control.

Assay [8] deals with T3, Phospholipase A2, membrane associated (Homo sapiens). Description: Inhibition of human sPLA2-2A assessed as reduction in PGE2 level at 10 uM relative to control.
Assay [9] has the same target. Description: Inhibition of human sPLA2-2A at 100 uM relative to control.
The target in another assay is T4, Estrogen receptor (Homo sapiens, UniProt P03372).
T4 sequence (P03372 whole entry): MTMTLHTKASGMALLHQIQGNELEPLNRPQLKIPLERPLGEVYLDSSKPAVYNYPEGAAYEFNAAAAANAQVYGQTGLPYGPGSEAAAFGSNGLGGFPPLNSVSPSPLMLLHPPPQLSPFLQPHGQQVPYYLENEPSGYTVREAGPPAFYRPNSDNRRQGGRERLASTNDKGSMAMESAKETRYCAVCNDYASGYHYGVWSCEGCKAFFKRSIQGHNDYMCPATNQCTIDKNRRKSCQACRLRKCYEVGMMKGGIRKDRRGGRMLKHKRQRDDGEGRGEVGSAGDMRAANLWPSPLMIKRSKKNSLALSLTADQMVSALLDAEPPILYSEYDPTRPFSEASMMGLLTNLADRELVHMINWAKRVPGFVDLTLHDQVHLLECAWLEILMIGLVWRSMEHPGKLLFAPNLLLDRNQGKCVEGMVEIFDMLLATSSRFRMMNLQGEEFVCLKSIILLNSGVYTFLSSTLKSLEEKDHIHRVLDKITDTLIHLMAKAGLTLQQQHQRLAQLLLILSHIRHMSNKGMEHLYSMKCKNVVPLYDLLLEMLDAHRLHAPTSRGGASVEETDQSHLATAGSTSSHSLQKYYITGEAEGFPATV
Kind of assay: Inhibition of estrogen receptor in human MCF-7 cells. Format: cell-based.

Assay [10] deals with T2, Receptor tyrosine-protein kinase erbB-2. Kind of assay: Inhibition of HER2 in human MCF-7 cells. It is filed as cell-based.

Chain of Acetylcholinesterase (Electrophorus electricus, UniProt O42275) (O42275 whole entry): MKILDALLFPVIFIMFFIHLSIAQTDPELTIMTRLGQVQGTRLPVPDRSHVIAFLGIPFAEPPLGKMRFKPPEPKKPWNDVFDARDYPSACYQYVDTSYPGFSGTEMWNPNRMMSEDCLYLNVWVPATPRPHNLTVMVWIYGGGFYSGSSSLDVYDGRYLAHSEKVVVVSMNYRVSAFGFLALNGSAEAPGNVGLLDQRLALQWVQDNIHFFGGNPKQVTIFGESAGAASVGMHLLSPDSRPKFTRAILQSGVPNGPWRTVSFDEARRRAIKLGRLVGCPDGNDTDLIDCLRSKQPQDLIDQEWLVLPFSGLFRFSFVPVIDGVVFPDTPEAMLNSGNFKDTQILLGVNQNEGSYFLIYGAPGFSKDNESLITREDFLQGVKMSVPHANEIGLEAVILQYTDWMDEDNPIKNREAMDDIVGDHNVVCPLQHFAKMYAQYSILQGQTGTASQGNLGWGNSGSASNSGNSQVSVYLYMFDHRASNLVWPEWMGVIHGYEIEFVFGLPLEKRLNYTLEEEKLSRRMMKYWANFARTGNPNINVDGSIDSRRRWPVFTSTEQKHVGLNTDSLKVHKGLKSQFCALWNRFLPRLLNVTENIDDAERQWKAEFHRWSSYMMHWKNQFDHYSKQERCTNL

Broadly, the IC50 is the concentration that inhibits the measured activity by half. Take `CCN[C@H]1CO[C@@H](O[C@H]2[C@H](OC[C@]34C#C/C=C\C#C[C@H]5N(C(=O)OCCS(=O)(=O)c6ccccc6)c6ccccc6[C@@]36O[C@]56CCC4)O[C@H](C)[C@@H](NO[C@H]3C[C@H](O)[C@H](SC(=O)c4c(C)c(I)c(O[C@@H]5O[C@@H](C)[C@H](O)[C@@H](OC)[C@H]5O)c(OC)c4OC)[C@@H](C)O3)[C@@H]2O)C[C@@H]1OC`: the half-maximal inhibitory concentration (IC50) with MOLT-4 and in the assay with UCLA P-3 was 1 nM in each case.
Regarding `COc1ccc2c3c1O[C@H]1C[C@@H](O)CC[C@@]31CCN(CCCCCCCCN1CC[C@@]34C=C[C@H](O)C[C@@H]3Oc3c(OC)ccc(c34)C1)C2`, the IC50 on Acetylcholinesterase [1] was determined as 230 nM.
Consider `CC1(C)CC[C@]2(C(=O)O)CC[C@]3(C)C(=CC[C@@H]4[C@@]5(C)C=CC(=O)C=C5CC[C@]43C)[C@@H]2C1`, for which the IC50 in [2] stood at 900 nM.
Consider `COc1ccc2c3c1O[C@H]1C[C@@H](O)CC[C@@]31CCN(CCCCCCN1CC[C@@]34C=C[C@H](O)C[C@@H]3Oc3c(OC)ccc(c34)C1)C2`, for which the half-maximal inhibitory concentration (IC50) against Acetylcholinesterase [1] was 450 nM.
`CC1CCC2CC(Cc3nc4ccccc4c(N)c32)C1` (stereo not drawn): on Acetylcholinesterase [3], inhibition was half-maximal at 1.3 nM (IC50).
`CO[C@H]1/C=C\C=C(/C)C(=O)NC2=CC(=O)C(NCCCCNC3=C4C[C@@H](C)C[C@H](OC)[C@H](O)[C@@H](C)/C=C(\C)[C@H](OC(N)=O)[C@@H](OC)/C=C\C=C(/C)C(=O)NC(=CC3=O)C4=O)=C(C[C@@H](C)C[C@H](OC)[C@H](O)[C@@H](C)/C=C(\C)[C@@H]1OC(N)=O)C2=O`: the IC50 was found to be 20 nM in the assay with SK-BR-3 and 60 nM in [4].
`CCC1CCC2CC(Cc3nc4ccccc4c(N)c32)C1` (stereo not drawn) displayed an IC50 on Acetylcholinesterase [3] of 1.15 nM.
As usually defined, the MIC is the lowest concentration that inhibits growth of the organism. Read a low MIC as inhibition by little substance. Turning to `COC(=O)[C@]1(C)CCC[C@@]2(C)[C@@H]3CC[C@@]4(C)C[C@]3(CC[C@@H]21)C/C4=N\NC(=O)c1ccccn1`, the MIC in [5] is 10 to 20 µg/mL (≈ 22.1 to 44.3 µM).
With `COc1ccc2c(c1)CC[C@@H]1[C@@H]2CC[C@]2(C)CO[C@@]3(C[C@@H](O)C(CO)=CO3)C[C@@H]12`, the EC50 in the assay on A549 was 23000 nM.
In assay [6], `CC(=O)O[C@H]1C(=O)[C@@]2(C)[C@H]([C@@H]3OC(=O)c4ccccc4OC/C=C/CC[C@H](NC(=O)OC(C)(C)C)[C@@H](O)C(=O)O[C@@H]4C[C@]3(O)C(C)(C)C1=C4C)[C@]1(OC(C)=O)CO[C@@H]1C[C@@H]2O` displayed an IC50 of 390 nM.
As usually defined, the inhibition is the share of the control response that was lost under treatment. For `C[C@@H](C1=CC[C@@H]2[C@@H]3[C@@H](O)[C@H](O)[C@H]4C[C@@H](O)CC[C@]4(C)[C@H]3CC[C@]12C)[C@@H](O)C1=CC(=O)OC1O` (stereo partly drawn), the inhibition in assay [7] turned out to be 64%; in assay [8], 72%; in assay [9], 63%.
Compound `C[C@@]12CC[C@@H]3[C@@](CC[C@H]4[C@@]3(C)CCC[C@@]4(C)C(=O)O)(C/C1=N\NC(=O)c1ccncc1)C2` showed a minimal inhibitory concentration (MIC) in assay [5] of 10 to 20 µg/mL (≈ 22.9 to 45.7 µM).
In the case of `CO[C@H]1/C=C\C=C(/C)C(=O)NC2=CC(=O)C(NCC#CCC[C@@H]3C[C@H]4[C@@H]5CCc6cc(O)ccc6[C@H]5CC[C@]4(C)[C@H]3O)=C(C[C@@H](C)C[C@H](OC)[C@H](O)[C@@H](C)/C=C(\C)[C@@H]1OC(N)=O)C2=O` (stereo in doubt), the IC50 came out at 220 nM at Estrogen receptor and 100 nM in assay [10].
